The values below are quoted from earlier work in patent US4801577A, “Nonapeptide and decapeptide analogs of LHRH useful as LHRH antagonists” (Syntex (U.S.A.) Inc., priority 1987, dated 1989).

This data set has as its system rat mast cells. The note with it: rat mast cells in vitro.
“LHRH: natural releasing hormone LHRH, a decapeptide comprised of naturally occurring amino acids”: the “ED50 for histamine release” value is 328 µg/mL.
Take “(N-Ac-D-Nal(2)^1, D-pCl-Phe^2, D-Trp^3, Arg^5, D-Tyr^6, D-Ala^10)LHRH”: the “ED50 for histamine release” value is 2 µg/mL.
On to “(N-Ac-D-Nal(2)^1, D-αMe-pCl-Phe^2, D-Pal(3)^3, D-Arg^6, hArg(Et2)^8, D-Ala^10)LHRH”, for which the “ED50 for histamine release” value is 4.9 µg/mL.
On to “(N-Ac-D-Nal(2)^1, pCl-Phe^2, D-Trp^3, D-Lys(iPr)^8,Lys(iPr)^6, D-Ala^10)LHRH”, for which the “ED50 for histamine release” value is 6.6 µg/mL.
With “(N-Ac-D-Nal(2)^1, D-pCl-Phe^2, D-Trp^3, D-Arg^6)LHRH”, the “ED50 for histamine release” value was 0.2 µg/mL.
